Where “and” joins values, the source holds several entries; their conditions need not be identical. Identical values can stand only once. Like-named read-outs stand apart in the source and are kept apart here.
What was measured:
46I, 84V, 90M virus = assay: Phenotypic susceptibility assay at Virologic, Inc.; assay type: cell-based, HIV-1; details: Human immunodeficiency virus 1
Experimental: (§1) Compounds were tested in phenotypic susceptibility assays at Virologic, Inc., (See Petropoulos C. J., Parkin N. T., Limoli K. L., Lie Y. S., Wrin T., Huang W., Tian H., Smith D., Winslow G. A., Capon D J, Whitcomb J M. 2000, “A novel phenotypic drug susceptibility assay for human immunodeficiency virus type 1,” Antimicrob Agents Chemother 44(4):920–928) or using the assay described here. MT-2 cells were infected with either HIV-1 NL4–3 or HIV-1 NL4–3(184V/L90M) and incubated in the presence of serial 0.5 log dilutions of test compounds. Three days later, culture supernatants were collected and virus production, as determined by p24 ELISA, was assayed. Percent inhibition was calculated as p24 concentration in compound-treated samples as compared to infected, compound-free controls. Inhibition of viral replication is determined by measuring reduction in HIV p24 present in the culture supernatant, using a Beckman-Coulter p24 HIV-1 Ag EIA kit and following the supplied protocol. Absorbance is read on a MRX microplate reader (Dynex Technologies). The EC50 was calculated as the concentration of compound that effected a decrease in the p24 production by infected, compound-treated cells to 50% of that produced by infected, compound-free cells.

HIV-1 protease (Q7S) = target: T1, HIV-1 protease (Q7S) (Human immunodeficiency virus type 1 group M subtype B, UniProt P04585, Q495S); assay: HIV-1 Protease RET Assay; assay type: biochemical; details: RET assay, Q7S enzyme, pH 4.8, 37 C
T1 construct: made in house
Outline: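 Ki values came from a RET assay on refolded Q7S protease (2 nM active dimer) cleaving RE(EDANS)SQNYPIVQK(DABCYL)R at 5 μM, read at ex 340/em 490 nm. Reactions ran 12 min at 37 C in 0.1M sodium acetate pH 4.8, 1M NaCl, 5 mM DTT, 10% DMSO; curves were fit with the Morrison tight-binding equation.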

HIV-1 = assay: Cytopathic Effect (CPE) Inhibition Assay (XTT dye reduction); assay type: cell-based; details: Human immunodeficiency virus 1, 144 h, read-out: Ave CPE EC50 (mM), protection of infected cells, six days, XTT
Outline: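 CEM-SS or MT-2 cells infected with HIV-1 RF or NL4–3 (moi 0.025–0.819), 2×10^4 cells/well, incubated six days with half-log compound dilutions. Viability read by XTT formazan at 450 nm; EC50 is the concentration restoring 50% of uninfected-control formazan, CC50 from uninfected treated cells, therapeutic index CC50/EC50.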

[1] = tested on: HIV-1 NL4–3 or HIV-1 NL4–3(184V/L90M); assay: Susceptibility assay, p24 ELISA in infected MT-2 cells; assay type: cell-based; details: Human immunodeficiency virus 1, MT2, 72 h, read-out: EC50 or IC50 (mM)
Experimental: T-cell lines, CEM-SS, and MT-2, and viruses HIV-1 RF and HIV-1 NL4–3 (pNL4–3) were obtained from the National Institutes of Health (AIDS Research and Reference Reagent Program, Bethesda, Md.).
as §1

Compound	IC50 (46I, 84V, 90M virus) [nM]	Ki (HIV-1 protease (Q7S); Ave. Ki (nM))	EC50 (HIV-1) [nM]	melting point [°C]	EC50 [1] [mM]	Ki (HIV-1 protease (Q7S); read-out: Ave. Ki) [nM]
Cc1ccccc1CNC(=O)[C@H]1N(C(=O)[C@@H](O)[C@H](Cc2ccccc2)NC(=O)N2CC[C@H](O)C2)CSC1(C)C (stereo in doubt) [Example B8, 3-(2-hydroxy-3-{[1-(3-hydroxy-pyrrolidin-yl)-methanoyl]-amino}-4-phenyl-butanoyl)-5,5-dimethyl-thiazolidine-4-carboxylic acid-2-methyl-benzylamide]	405	0.31 nM and 1.5 nM				
C=CCNC(=O)[C@H]1N(C(=O)[C@@H](O)[C@H](Cc2ccccc2)NC(=O)c2cccc(O)c2C)CSC1(C)C [Example A14, (R)-3-((2S,3S)-2-Hydroxy-3-{[1-(3-hydroxy-2-methyl-phenyl)-methanoyl]-amino}-4-phenyl-butanoyl)-5,5-dimethyl-thiazolidine-4-carboxylic acid allylamide]	71	0.44 nM	52			
C#CCNC(=O)[C@H]1N(C(=O)[C@@H](O)[C@H](Cc2ccccc2)NC(=O)c2cccc(O)c2C)CSC1(C)C [Example A17, 3-(2-Hydroxy-3-{[1-(3-hydroxy-2-methyl-phenyl)-methanoyl]-amino}-4-phenyl-butanoyl)-5,5-dimethyl-thiazolidine-4-carboxylic acid prop-2-ynylamide]	102	< 0.1 nM	45			
Cc1c(O)cccc1C(=O)N[C@@H](Cc1ccccc1)[C@H](O)C(=O)N1CSC(C)(C)[C@H]1C(=O)N[C@@H](C)c1ccccc1 [Example A20, (R)-3-((2S,3S)-2-Hydroxy-3-{[1-(3-hydroxy-2-methyl-phenyl)-methanoyl]-amino}-4-phenyl-butanoyl)-5,5-dimethyl-thiazolidine-4-carboxylic acid ((S)-1-phenyl-ethyl)-amide]	147	0.13 nM	37	114 to 115		
CCOc1cccc(CNC(=O)[C@H]2N(C(=O)[C@@H](O)[C@H](Cc3ccccc3)NC(=O)c3cccc(O)c3C)CSC2(C)C)c1 [Example A26, (R)-3-((2S,3S)-2-Hydroxy-3-{[1-(3-hydroxy-2-methyl-phenyl)-methanoyl]-amino}-4-phenyl-butanoyl)-5,5-dimethyl-thiazolidine-4-carboxylic acid 3-ethoxy-benzylamide]	321	0.38 nM	119	105 to 107		
Cc1c(O)cccc1C(=O)N[C@@H](Cc1ccccc1)[C@H](O)C(=O)N1CSC(C)(C)[C@H]1C(=O)NCC#N [Example A30, (R)-3-((2S,3S)-2-Hydroxy-3-{[1-(3-hydroxy-2-methyl-phenyl)-methanoyl]-amino}-4-phenyl-butanoyl)-5,5-dimethyl-thiazolidine-4-carboxylic acid cyanomethylamide]	829	1.1 nM	507			
CCCN(C)C(=O)[C@H]1N(C(=O)[C@@H](O)[C@H](Cc2ccccc2)NC(=O)c2cccc(O)c2C)CSC1(C)C [Example A46, (R)-3-((2S,3S)-2-Hydroxy-3-{[1-(3-hydroxy-2-methyl-phenyl)-methanoyl]-amino}-4-phenyl-butanoyl)-5,5-dimethyl-thiazolidine-4-carboxylic acid methyl-propyl-amide]		0.31 nM	91	108 to 110	0.00079	
Cc1nc(C)c(C(=O)N[C@@H](Cc2ccccc2)[C@H](O)C(=O)N2CSC(C)(C)[C@H]2C(=O)NCc2ccccc2C)s1 [Example B11, 2,4-Dimethyl-thiazole-5-carboxylic acid {1-benzyl-3-[5,5-dimethyl-4-(2-methyl-benzylcarbamoyl)-thiazolidin-3-yl]-2-hydroxy-3-oxo-propyl}-amide]	1720	1.2 nM	1180			
COCCCC(=O)[C@H]1N(C(=O)[C@@H](O)[C@H](Cc2ccccc2)NC(=O)c2cccc(O)c2C)CSC1(C)C [Example D3, N-{1-Benzyl-2-hydroxy-3-[4-(4-methoxy-butanoyl)-5,5-dimethyl-thiazolidin-3-yl]-3-oxo-propyl}-3-hydroxy-2-methyl-benzamide]		0.5 nM	162		0.00195	
C=CCNC(=O)[C@H]1N(C(=O)[C@@H](O)[C@H](Cc2ccccc2)NC(=O)c2cc(C)cc(O)c2C)CSC1(C)C [Example D4, (R)-3-[(2S, 3S)-2-Hydroxy-3-(3-hydroxy-2,5-dimethyl-benzoylamino)-4-phenyl-butyryl]-5,5-dimethyl-thiazolidine-4-carboxylic acid allylamide]			16		0.00195	0.7
